# Test results as given in ChEMBL document CHEMBL4813950, “Comparing the efficacy and selectivity of Ck2 inhibitors. A phosphoproteomics approach” (Eur J Med Chem, 2021).
# Activity calls are given as the source filed them. The calls are words filed in the database; no cut-off is given here.
# Columns and labels:
# [1] = target: Sequestosome-1 (Mus musculus) (UniProt Q64337); assay: Inhibition of Sequestosome-1 in mouse C2C12 cells assessed as reduction in phospho-sites occupancy at 4 uM after 5 hrs by SILAC based LC-MS/MS analysis relative to control; format: cell-based
# [2] = target: Nucleolar protein 56 (Mus musculus) (UniProt Q9D6Z1); assay: Inhibition of Nop56 in mouse C2C12 cells assessed as reduction in phospho-sites occupancy at 4 uM after 5 hrs by SILAC based LC-MS/MS analysis relative to control; format: cell-based
# Striatin (Mus musculus) = Striatin (Mus musculus) (UniProt O55106); assay: Inhibition of Stria-tin in mouse C2C12 cells assessed as reduction in phospho-sites occupancy at 4 uM after 5 hrs by SILAC based LC-MS/MS analysis relative to control; format: cell-based
# [3] = target: T1, Casein kinase 2 (Mus musculus) (UniProt Q60737+P67871+O54833+Q8CH19); assay: Inhibition of CK2 in mouse C2C12 cells assessed as reduction in CDC37 phosphorylation at S13 residues at 1 to 4 uM by Western blot analysis; format: cell-based; details: dose 1-4 µM
# [4] = target: Transcriptional regulator ATRX (Mus musculus) (UniProt Q61687); assay: Inhibition of ATRX in mouse C2C12 cells assessed as reduction in phospho-sites occupancy at 4 uM after 5 hrs by SILAC based LC-MS/MS analysis relative to control; format: cell-based
# [5] = target: SWI/SNF-related matrix-associated actin-dependent regulator of chromatin subfamily A containing DEAD/H box 1 (Mus musculus) (UniProt Q04692); assay: Inhibition of Smarcad1 in mouse C2C12 cells assessed as reduction in phospho-sites occupancy at 4 uM after 5 hrs by SILAC based LC-MS/MS analysis relative to control; format: cell-based
# [6] = target: Eukaryotic translation initiation factor 2 subunit 2 (Mus musculus) (UniProt Q99L45); assay: Inhibition of eukaryotic translation initiation factor 2 subunit 2 in mouse C2C12 cells assessed as reduction in phospho-sites occupancy at 4 uM after 5 hrs by SILAC based LC-MS/MS analysis relative to control; format: cell-based
# [7] = target: Tight junction protein 2 (Mus musculus) (UniProt Q9Z0U1); assay: Inhibition of Tjp2 in mouse C2C12 cells assessed as reduction in phospho-sites occupancy at 4 uM after 5 hrs by SILAC based LC-MS/MS analysis relative to control; format: cell-based
# [8] = target: Charged multivesicular body protein 3 (Mus musculus) (UniProt Q9CQ10); assay: Inhibition of Chmp3 in mouse C2C12 cells assessed as reduction in phospho-sites occupancy at 4 uM after 5 hrs by SILAC based LC-MS/MS analysis relative to control; format: cell-based
# [9] = target: E3 ubiquitin-protein ligase Praja-1 (Mus musculus) (UniProt O55176); assay: Inhibition of Pja1 in mouse C2C12 cells assessed as reduction in phospho-sites occupancy at 4 uM after 5 hrs by SILAC based LC-MS/MS analysis relative to control; format: cell-based
# [10] = target: UPF0690 protein C1orf52 homolog (Mus musculus) (UniProt Q9CWU4); assay: Inhibition of UPF0690 protein C1orf52 homolog in mouse C2C12 cells assessed as reduction in phospho-sites occupancy at 4 uM after 5 hrs by SILAC based LC-MS/MS analysis relative to control; format: cell-based
# [11] = target: La-related protein 1 (Mus musculus) (UniProt Q6ZQ58); assay: Inhibition of Larp1 in mouse C2C12 cells assessed as reduction in phospho-sites occupancy at 4 uM after 5 hrs by SILAC based LC-MS/MS analysis relative to control; format: cell-based
# [12] = target: T1, Casein kinase 2 (Mus musculus); assay: Inhibition of CK2 in mouse C2C12 cells assessed as reduction in CK2 substrates phosphorylation at 1 to 4 uM by Western blot analysis; format: cell-based; details: dose 1-4 µM
# [13] = target: Protein transport protein Sec31A (Mus musculus) (UniProt Q3UPL0); assay: Inhibition of Sec31a in mouse C2C12 cells assessed as reduction in phospho-sites occupancy at 4 uM after 5 hrs by SILAC based LC-MS/MS analysis relative to control; format: cell-based
# [14] = target: E3 ubiquitin-protein ligase NEDD4 (Mus musculus) (UniProt P46935); assay: Inhibition of Nedd4 in mouse C2C12 cells assessed as reduction in phospho-sites occupancy at 4 uM after 5 hrs by SILAC based LC-MS/MS analysis relative to control; format: cell-based
# [15] = target: Fermitin family homolog 2 (Mus musculus) (UniProt Q8CIB5); assay: Inhibition of Fermt2 in mouse C2C12 cells assessed as reduction in phospho-sites occupancy at 4 uM after 5 hrs by SILAC based LC-MS/MS analysis relative to control; format: cell-based
# [16] = target: Acetyl-CoA carboxylase 1 (Mus musculus) (UniProt Q5SWU9); assay: Inhibition of Acetyl-CoA carboxylase 1 in mouse C2C12 cells assessed as reduction in phospho-sites occupancy at 4 uM after 5 hrs by SILAC based LC-MS/MS analysis relative to control; format: cell-based
# [17] = target: Host cell factor 1 (Mus musculus) (UniProt Q61191); assay: Inhibition of host cell factor 1 in mouse C2C12 cells assessed as reduction in phospho-sites occupancy at 4 uM after 5 hrs by SILAC based LC-MS/MS analysis relative to control
# [18] = target: Dihydropyrimidinase-related protein 3 (Mus musculus) (UniProt Q62188); assay: Inhibition of Dihydropyrimidinase-related protein 3 in mouse C2C12 cells assessed as reduction in phospho-sites occupancy at 4 uM after 5 hrs by SILAC based LC-MS/MS analysis relative to control; format: cell-based
# [19] = target: Pleckstrin homology-like domain family B member 1 (Mus musculus) (UniProt Q6PDH0); assay: Inhibition of Phldb1 in mouse C2C12 cells assessed as reduction in phospho-sites occupancy at 4 uM after 5 hrs by SILAC based LC-MS/MS analysis relative to control; format: cell-based
# [20] = target: Protein IMPACT (Mus musculus) (UniProt O55091); assay: Inhibition of Impact in mouse C2C12 cells assessed as reduction in phospho-sites occupancy at 4 uM after 5 hrs by SILAC based LC-MS/MS analysis relative to control; format: cell-based
# [21] = target: Serine/threonine-protein phosphatase 6 regulatory subunit 3 (Mus musculus) (UniProt Q922D4); assay: Inhibition of Ppp6r3 in mouse C2C12 cells assessed as reduction in phospho-sites occupancy at 4 uM after 5 hrs by SILAC based LC-MS/MS analysis relative to control; format: cell-based
# [22] = target: Catenin alpha-1 (Mus musculus) (UniProt P26231); assay: Inhibition of catenin alpha-1 in mouse C2C12 cells assessed as reduction in phospho-sites occupancy at 4 uM after 5 hrs by SILAC based LC-MS/MS analysis relative to control; format: cell-based
# [23] = target: DNA topoisomerase 2-beta (Mus musculus) (UniProt Q64511); assay: Inhibition of DNA topoisomerase 2-beta in mouse C2C12 cells assessed as reduction in phospho-sites occupancy at 4 uM after 5 hrs by SILAC based LC-MS/MS analysis relative to control; format: cell-based
# [24] = target: Desmoyokin (Mus musculus) (UniProt Q61484); assay: Inhibition of AHNAK in mouse C2C12 cells assessed as reduction in phospho-sites occupancy at 4 uM after 5 hrs by SILAC based LC-MS/MS analysis relative to control; format: cell-based
smiles,measurement,setting,value
COc1cc(/C=N/n2c(SC)nnc2-c2ccccc2)c(Br)cc1O,fold change (FC),[1],2.35
same,fold change (FC),[2],1.5
same,fold change (FC),Striatin (Mus musculus),2.25
same,inhibition,[3],Active
same,fold change (FC),[4],2.83
same,fold change (FC),[5],1.64
same,fold change (FC),[6],1.6
same,fold change (FC),[7],3.31
same,fold change (FC),[8],3.19
same,fold change (FC),[9],2.53
same,fold change (FC),[10],1.61
same,fold change (FC),[11],3.25
same,inhibition,[12],Active
same,fold change (FC),[13],2.98
same,fold change (FC),[14],5.83
same,fold change (FC),[15],3.05
same,fold change (FC),[16],2.73
same,fold change (FC),[17],1.56
same,fold change (FC),[18],3.25
same,fold change (FC),[19],3.3
same,fold change (FC),[20],3.44
same,fold change (FC),[21],1.75
same,fold change (FC),[22],1.59
same,fold change (FC),[23],1.6
same,fold change (FC),[24],3.22
